Patent US8389523B2, “Substituted quinoxaline and an agrochemical composition thereof” (Kumiai Chemical Industry Co., Ltd., priority 2007, dated 2013)

Key:
Assay type in all cases: in vivo
Parameters in all cases: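 grade 0 to 5 of growth suppression where 5 is 90% or more and 0 below 10%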
Amaranthus viridis L. [1] = assay: Herbicidal effects in upland field foliar treatment (Test Example 3); details: criteria of Table 138; for herbicidal effects on Amaranthus viridis L.: 1000 g of the active ingredient per hectare, 14th day after the treatment, wettable powder; for herbicidal effect (index) on Amaranthus viridis L.: 1000 g active ingredient per hectare, 14th day after treatment
Method in brief: (§1)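 Foliar spray of diluted wettable powder, 1000 g a.i./ha in 1000 L/ha, onto two-week-old greenhouse-grown seedlings in upland field soil. Plants kept in the greenhouse, with effect rated on a criteria scale at day 14.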

[2] = test system: Echinochloa crus-galli (L.) P. Beauv. var. crus-galli; assay: as above; details: criteria of Table 138; for herbicidal effects on Echinochloa crus-galli (L.) P. Beauv. var. crus-galli: 1000 g of the active ingredient per hectare, 14th day after the treatment, wettable powder; for herbicidal effect (index) on Echinochloa crus-galli (L.) P. Beauv. var. crus-galli: 1000 g active ingredient per hectare, 14th day after treatment
Method in brief: as §1

[3] = test system: Abutilon theophrasti medicus; assay: as above; details: criteria of Table 138; for herbicidal effects on Abutilon theophrasti medicus: 1000 g of the active ingredient per hectare, 14th day after the treatment, wettable powder; for herbicidal effect (index) on Abutilon theophrasti medicus: 1000 g active ingredient per hectare, 14th day after treatment
Method in brief: as §1

[4] = test system: Scirpus juncoides Roxb. var. ohwianus. T. Koyama; assay: Herbicidal effects in paddy field soil treatment (Test Example 1); details: paddy field soil treatment; 1000 g of the active ingredient per hectare; wettable powder added dropwise on water surface; 21st day after treatment
Method in brief: (§2)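 Application rate 1000 g a.i./ha, delivered as water-diluted wettable powder onto flooded (3 cm) paddy soil one day after sowing. Plants kept in a greenhouse and evaluated for herbicidal effect on day 21 post-treatment.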

[5] = test system: Monochoria vaginalis (Burm. f.) Presl var. plantaginea (Roxb.) Solms-Laub.; assay: as above; details: paddy field soil treatment; 1000 g of the active ingredient per hectare; wettable powder added dropwise on water surface; 21st day after treatment
Method in brief: as §2

[6] = test system: Echinochloa oryzicola Vasing; assay: as above; details: paddy field soil treatment; 1000 g of the active ingredient per hectare; wettable powder added dropwise on water surface; 21st day after treatment
Method in brief: as §2

Amaranthus viridis L. [7] = assay: Herbicidal effects in upland field soil treatment (Test Example 2); details: 1000 g active ingredient per hectare, 21st day after treatment, criteria of Table 138
Method in brief: (§3)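 Herbicidal effect graded 21 days after treatment, plants kept in greenhouse. Treatment was a soil-surface spray of wettable powder in water, 1000 g a.i./ha in 1000 L/ha, applied after sowing and covering seeds.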

[8] = test system: Abutilon theophrasti medicus; assay: as above; details: 1000 g active ingredient per hectare, 21st day after treatment, criteria of Table 138
Method in brief: as §3

Structure (SMILES)	herbicidal effects on Amaranthus viridis L. (Amaranthus viridis L. [1])	herbicidal effects on Echinochloa crus-galli (L.) P. Beauv. var. crus-galli [2]	herbicidal effects on Abutilon theophrasti medicus [3]	Herbicidal effects index, Scirpus juncoides Roxb. var. ohwianus. T. Koyama [4]	Herbicidal effects index, Monochoria vaginalis (Burm. f.) Presl var. plantaginea (Roxb.) Solms-Laub. [5]	Herbicidal effects index, Echinochloa oryzicola Vasing [6]	herbicidal effect (index) on Amaranthus viridis L. (Amaranthus viridis L. [7])	herbicidal effect (index) on Abutilon theophrasti medicus [8]	herbicidal effect (index) on Amaranthus viridis L. (Amaranthus viridis L. [1])	herbicidal effect (index) on Echinochloa crus-galli (L.) P. Beauv. var. crus-galli [2]	herbicidal effect (index) on Abutilon theophrasti medicus [3]
CC(C)Oc1ccc(-n2c(=O)c(C(=O)C3=C(O)CCCC3=O)nc3ccccc32)cc1 [II-75]	5	5	4	5	5	5	5	4			
Cc1cc(-n2c(=O)c(C(=O)C3=C(O)CCCC3=O)nc3ccccc32)nn1C [I-266]				5	5	5	5	5	5	5	5
CSc1ccc(-n2c(=O)c(C(=O)C3=C(O)CCCC3=O)nc3ccccc32)cc1 [II-122]	5	5	4	5	5	5	5	5			
COc1ccc(-n2c(=O)c(C(=O)C3=C(O)CCCC3=O)nc3ccc(Cl)cc32)cc1 [II-196]	5	5	5	5	5	4	5	4			
COc1ccc(-n2c(=O)c(C(=O)C3=C(O)CCCC3=O)nc3ccc(F)cc32)cc1 [II-188]	5	4	5	5	5	5	5	5			
Cc1cc(-n2c(=O)c(C(=O)C3=C(O)CCCC3=O)nc3ccccc32)no1 [I-145]				5	5	5	5	5	5	5	5
Cc1cccc(-n2c(=O)c(C(=O)C3=C(O)CCCC3=O)nc3ccccc32)n1 [I-173, 3-(2-hydroxy-6-oxo-1-cyclohexenecarbonyl)-1-(6-methyl-2-pyridyl)-quinoxalin-2 (1H)-one]				5	5	5	5	5	5	5	5
O=C1CCCC(O)=C1C(=O)c1nc2ccccc2n(-c2ccc3c(c2)OCO3)c1=O [I-202, 1-(benzo[d][1,3]dioxol-5-yl)-3-(2-hydroxy-6-oxo-1-cyclohexenecarbonyl)-quinoxalin-2(1H)-one]				5	5	5	5	4	5	4	5
Cn1nc(-n2c(=O)c(C(=O)C3=C(O)CCCC3=O)nc3ccccc32)cc1C(F)(F)F [I-267]				5	5	5	5	5	5	5	5
COc1cc(-n2c(=O)c(C(=O)C3=C(O)CCCC3=O)nc3cc(F)ccc32)cc(OC)c1OC [II-238]	5	5	5	5	5	5	5	5			
Cc1csc(-n2c(=O)c(C(=O)C3=C(O)CCCC3=O)nc3ccccc32)n1 [I-160]				5	5	5	5	5	5	5	5
